Results as given in patent publication US12516285B2, “Small peptide MIPEP166I and use thereof in plant tissue culture” (Nanjing Forestry University, priority 2023, dated 2026).
Marks after values point to notes of the source that are not given here.

Tests used:
Type in all cases: in vivo, 84K poplar (Populus alba×Populus tremula var. glandulosa)
84K poplar = test: Adventitious root formation and elongation in tissue culture on peptide-treated MS medium; conditions: 5 μM in MS medium, plants cultured for two weeks, n=15
Protocol: (§1) The three synthetic peptides were each added to MS medium at a concentration of 5 μM as exogenous treatments, while sterile water was chosen as the blank control (CK) treatment (FIG. 1B).
This may be due to the exogenous peptides acting as biological stimulants and osmotic agents, broadly inducing miRNA expression, with the lowest expression of miR166i observed in the CK samples.

miR166i = test: RT-qPCR of miR166i in 84K poplar after exogenous peptide treatment
Protocol: as §1
(§2) To investigate the possible role of miPEP166i in its corresponding miRNA biogenesis, RT-qPCR was first used to analyze the abundance changes of pri-miR166i and miR166i in 84K poplar after 24 hours of exogenous treatment.
(§3) During the process of adventitious root elongation, samples collected at 6, 9, and 12 days after cultivation (T1, T2, and T3 stages) were used to detect the expression of miR166i and its targets, aiming to explore the dynamic regulatory pattern of exogenous miPEP166i treatment (FIG. 3A). Due to the equivalence of NSP and IP treatments (FIG. 2G and FIG. 2H), only samples treated with CK, NSP, and miPEP, along with control samples, were used for quantitative miRNA expression and transcriptome sequencing analysis.

[1] = tested on: root systems of 84K poplar; test: Time-course transcriptome (RNA-seq), differentially expressed genes; conditions: for differentially expressed genes (DEGs): miPEP vs mock and vs NSP, |log2FC|>1 and FDR<0.05
Text: as §3
(§4) RNA-seq libraries were constructed from the root systems of 84K poplar to investigate the effects of miPEP166i induction on miR166i targets.
(§5) Using time-course transcriptome data from the root systems of 84K poplar, we explored the potential downstream gene expression responses induced by exogenous application of miPEP166i. By cross-comparing miPEP treatment with mock treatment and miPEP treatment with NSP treatment, we identified 114, 130, and 547 differentially expressed genes (DEGs) (|log2FC|>1 and FDR<0.05) at the T1, T2, and T3 stages, respectively. […] These genes are controlled by the master switches of HD-ZIP III transcription factors.

PagREV = test: Expression of miR166i target gene PagREV (RT-qPCR and RNA-seq)
Text: as §3, §4

pri-miR166i = test: RT-qPCR of pri-miR166i in 84K poplar stem explants after exogenous peptide treatment; conditions: 5 μM in MS medium, 24 hours, vs control treatments
Protocol: as §1, §2

[2] = tested on: Genes in Hormone Metabolism and Signaling Pathways; test: Time-course transcriptome (RNA-seq), hormone-related genes
Text: as §3, §4, §5
Multiple intersections between hormone signaling and HD-ZIP III activity occur during root elongation. Numerous plant hormone-related genes were found within the DEG set, including genes related to auxin and cytokinin synthesis, (De)conjugation, transport, and signaling (Table 1).

PagHB8 = test: Expression of miR166i target gene PagHB8 (RT-qPCR and RNA-seq)
Text: as §3, §4

[3] = T1 stage (6 days after culture), P<0.05
[4] = T2 and T3 stages (9 and 12 days after culture)
[5] = T3 stage (12 DAC), miPEP vs NSP

IP: interference control peptide, same amino acids but different sequence, MSDFGGQPTLPFCLSSLNPKSTLK (SEQ ID NO.5)
length of adventitious roots (84K poplar): equivalence | number of adventitious roots (84K poplar): equivalence | expression of miR166i compared to NSP samples (miR166i; 5 μM in MS medium, stem explants, 24 hours): slightly higher expression of miR166i was observed after IP treatment compared to its expression in NSP samples, the difference was not significant

miPEP166i: small peptide encoded by pri-miRNA166i of 84K poplar, amino acid sequence SEQ ID NO.3 (MDGQTPCSLPSLSFGPLFLSNKTK; Populus alba x Populus tremula var. glandulosa)
differentially expressed genes (DEGs) ([1]; T1 stage): 114 | differentially expressed genes (DEGs) ([1]; T2 stage): 130 | differentially expressed genes (DEGs) ([1]; T3 stage): 547 | downregulated genes ([1]; across all three stages): 139 | upregulated genes ([1]; across all three stages): 552 | expression of genes involved in cellulose and lignin biosynthesis (PagCSLD4, PagCAD7, PagCOBL1, PagPAL2) ([1]; miPEP-treated samples, root transcriptome): upregulated | expression of PagREV (PagREV; [3]): significantly reduced | expression of PagREV (PagREV; [4]): no significant reduction | length of adventitious roots (84K poplar): significant increase | number of adventitious roots (84K poplar): significant increase | expression of pri-miR166i (pri-miR166i): did not result in significant changes | FC_T1 miPEP/CK, ABCB9 (Pag_G_024492) ([2]; T1 stage (6 DAC), miPEP vs CK): −1.07* | FC_T1 miPEP/CK, CKX3 (Pag_A_037490) ([2]; T1 stage (6 DAC), miPEP vs CK): 4.85* | FC_T1 miPEP/CK, GH3.10 (Pag_A_034334) ([2]; T1 stage (6 DAC), miPEP vs CK): −2.92* | FC_T1 miPEP/CK, GH3.10 (Pag_G_015269) ([2]; T1 stage (6 DAC), miPEP vs CK): −1.67** | FC_T1 miPEP/CK, GH3.10 (Pag_G_025244) ([2]; T1 stage (6 DAC), miPEP vs CK): −4.42* | FC_T1 miPEP/CK, LOG5 (Pag_G_021773) ([2]; T1 stage (6 DAC), miPEP vs CK): −1.91* | FC_T1 miPEP/NSP, ABCB9 (Pag_G_024492) ([2]; T1 stage (6 DAC), miPEP vs NSP): −0.72 | FC_T1 miPEP/NSP, CKX3 (Pag_A_037490) ([2]; T1 stage (6 DAC), miPEP vs NSP): 2.61 | FC_T1 miPEP/NSP, GH3.10 (Pag_A_034334) ([2]; T1 stage (6 DAC), miPEP vs NSP): −2.2 | FC_T1 miPEP/NSP, GH3.10 (Pag_G_015269) ([2]; T1 stage (6 DAC), miPEP vs NSP): −1.21* | FC_T1 miPEP/NSP, GH3.10 (Pag_G_025244) ([2]; T1 stage (6 DAC), miPEP vs NSP): −3.64 | FC_T1 miPEP/NSP, LOG5 (Pag_G_021773) ([2]; T1 stage (6 DAC), miPEP vs NSP): −2.14* | FC_T2 miPEP/CK, CKI1 (Pag_A_024550) ([2]; T2 stage (9 DAC), miPEP vs CK): 1.02** | FC_T2 miPEP/CK, CKI1 (Pag_G_014127) ([2]; T2 stage (9 DAC), miPEP vs CK): 0.93* | FC_T2 miPEP/CK, CKX1 (Pag_G_016517) ([2]; T2 stage (9 DAC), miPEP vs CK): −1.17 | FC_T2 miPEP/CK, TAA1 (Pag_G_035628) ([2]; T2 stage (9 DAC), miPEP vs CK): 0.74 | FC_T2 miPEP/CK, TAA1 (Pag_G_035629) ([2]; T2 stage (9 DAC), miPEP vs CK): 0.78 | FC_T2 miPEP/NSP, CKI1 (Pag_A_024550) ([2]; T2 stage (9 DAC), miPEP vs NSP): 1.11** | FC_T2 miPEP/NSP, CKI1 (Pag_G_014127) ([2]; T2 stage (9 DAC), miPEP vs NSP): 1.14** | FC_T2 miPEP/NSP, CKX1 (Pag_G_016517) ([2]; T2 stage (9 DAC), miPEP vs NSP): −2.19* | FC_T2 miPEP/NSP, TAA1 (Pag_G_035628) ([2]; T2 stage (9 DAC), miPEP vs NSP): 1.72* | FC_T2 miPEP/NSP, TAA1 (Pag_G_035629) ([2]; T2 stage (9 DAC), miPEP vs NSP): 1.49** | expression of genes encoding auxin transport proteins (PIN, ABCB, PIN-LIKES) ([2]; T3 stage): significantly increased | FC_T3 miPEP/CK, ABCB8 (Pag_A_020924) ([2]; T3 stage (12 DAC), miPEP vs CK): −1.18** | FC_T3 miPEP/CK, ABCB11 (Pag_A_005381) ([2]; T3 stage (12 DAC), miPEP vs CK): 2.40** | FC_T3 miPEP/CK, ABCB11 (Pag_A_010928) ([2]; T3 stage (12 DAC), miPEP vs CK): 1.90** | FC_T3 miPEP/CK, ABCB11 (Pag_G_007723) ([2]; T3 stage (12 DAC), miPEP vs CK): 2.08** | FC_T3 miPEP/CK, ABCB15 (Pag_A_017535) ([2]; T3 stage (12 DAC), miPEP vs CK): 1.05** | FC_T3 miPEP/CK, ABCB15 (Pag_G_028009) ([2]; T3 stage (12 DAC), miPEP vs CK): 1.21** | FC_T3 miPEP/CK, ABCB25 (Pag_A_009324) ([2]; T3 stage (12 DAC), miPEP vs CK): 1.18 | FC_T3 miPEP/CK, ARF11 (Pag_G_003815) ([2]; T3 stage (12 DAC), miPEP vs CK): −1.75** | FC_T3 miPEP/CK, IAA29 (Pag_G_007396) ([2]; T3 stage (12 DAC), miPEP vs CK): −0.94* | FC_T3 miPEP/CK, LOG1 (Pag_A_016041) ([2]; T3 stage (12 DAC), miPEP vs CK): −2.72** | FC_T3 miPEP/CK, LOG3 (Pag_G_010191) ([2]; T3 stage (12 DAC), miPEP vs CK): −1.55 | FC_T3 miPEP/CK, PILS3 (Pag_A_012930) ([2]; T3 stage (12 DAC), miPEP vs CK): 4.74* | FC_T3 miPEP/CK, PILS7 (Pag_G_005929) ([2]; T3 stage (12 DAC), miPEP vs CK): 0.96** | FC_T3 miPEP/CK, PIN7 (Pag_A_015236) ([2]; T3 stage (12 DAC), miPEP vs CK): 1.33** | FC_T3 miPEP/CK, PIN8 (Pag_A_008558) ([2]; T3 stage (12 DAC), miPEP vs CK): −1.07* | FC_T3 miPEP/CK, PIN8 (Pag_G_019315) ([2]; T3 stage (12 DAC), miPEP vs CK): 1.02** | FC_T3 miPEP/NSP, ABCB8 (Pag_A_020924) [2, 5]: −0.71 | FC_T3 miPEP/NSP, ABCB11 (Pag_A_005381) [2, 5]: 1.34** | FC_T3 miPEP/NSP, ABCB11 (Pag_A_010928) [2, 5]: 1.13* | FC_T3 miPEP/NSP, ABCB11 (Pag_G_007723) [2, 5]: 1.34* | FC_T3 miPEP/NSP, ABCB15 (Pag_A_017535) [2, 5]: 1.11** | FC_T3 miPEP/NSP, ABCB15 (Pag_G_028009) [2, 5]: 1.27** | FC_T3 miPEP/NSP, ABCB25 (Pag_A_009324) [2, 5]: 3.26* | FC_T3 miPEP/NSP, ARF11 (Pag_G_003815) [2, 5]: −1.14* | FC_T3 miPEP/NSP, IAA29 (Pag_G_007396) [2, 5]: −1.21** | FC_T3 miPEP/NSP, LOG1 (Pag_A_016041) [2, 5]: −2.28* | FC_T3 miPEP/NSP, LOG3 (Pag_G_010191) [2, 5]: −1.86* | FC_T3 miPEP/NSP, PILS3 (Pag_A_012930) [2, 5]: −2.93 | FC_T3 miPEP/NSP, PILS7 (Pag_G_005929) [2, 5]: 1.03** | FC_T3 miPEP/NSP, PIN7 (Pag_A_015236) [2, 5]: 1.08** | FC_T3 miPEP/NSP, PIN8 (Pag_A_008558) [2, 5]: −0.94 | FC_T3 miPEP/NSP, PIN8 (Pag_G_019315) [2, 5]: 1.16** | expression of PagCKI1 (cytokinin signaling) ([2]; miPEP-treated samples): upregulated | expression of PagGH3 (auxin conjugation) ([2]; miPEP-treated samples): downregulated | expression of auxin synthesis gene PagTAA1 ([2]; miPEP-treated samples): significantly upregulated | expression of cytokinin synthesis gene PagLOG ([2]; miPEP-treated samples): significantly downregulated | expression of miR166i (miR166i; 5 μM in MS medium, stem explants, 24 hours, vs the three control treatments): significantly enhanced | miR166i expression (miR166i; T1, T2 and T3 stages (6, 9, 12 days after culture), vs CK and NSP): significant enhancement | expression of PagHB8 (PagHB8; [3]): significantly reduced | expression of PagHB8 (PagHB8; [4]): no significant reduction

NSP: non-specific control peptide of 15 amino acids, CLLNCPIYWQQLREX (SEQ ID NO.4)
length of adventitious roots (84K poplar): equivalence | number of adventitious roots (84K poplar): equivalence
